Measurements reported in patent US5885834A, “Antisense oligodeoxynucleotide against phosphodiesterase” (priority 1997, dated 1999).
Like-named read-outs stand apart in the source and are kept apart here.

Columns and labels:
Type in all cases: cell-based, human
[1] = test system: PDE4B mRNA in RPMI 8392 cells; experiment: RT-PCR amplification of PDE4 subtype transcripts in RPMI 8392 cells; conditions: agent alone
PDE4 mRNA in HPBL = experiment: RT-PCR amplification of transcripts in HPBL
Description: (§1) HPBL were purified from 30-60 ml of blood obtained from normal donors by defribrination with glass beads to remove platelets, incubated with tetracarbonyl iron to minimize monocyte contamination and centrifuged on Ficoll-Hypaque density gradients to achieve cell separation. […] For this stimulation, cells were placed in 25 cm^2 flasks in a total volume of 10 ml/flask.
(§2) First strand cDNA was synthesized from the RNA using a Superscript Preamplification System from GIBCO/BRL. […] To this was added 10 mM Tris/HCl pH 8.4, 50 mM KCl, 2.5 mM MgCl2, 10 mM DTT, 500 μM each of dGTP, dATP, dCTP and dTTP in a total volume of 20 μl, and the resultant mix was incubated at room temperature for 5 min. Superscript II reverse transcriptase (2 U) was then added and incubation continued at 42° C. for 50 min. at 70° C. for 15 min. RNase H (2 U) was then added and incubation carried out for 20 min. at 37° C. PCR amplification was carried out in a total volume of 50 μl using 2 μl of cDNA, 20 mM Tris/HCl pH 8.4, 50 mM KCl, 1.5 mM MgCl2, 200 μM each of dGTP, dATP, dCTP and dTTP and 0.4 μM of sense and antisense primers specific for different isogenes of human PDE4, human β-actin and human PDE1B1, as described hereinafter. The PCR reaction mixture was incubated at 94° C. for 5 min. followed by the addition of 0.5 μl Taq DNA polymerase (5 U/μl, GIBCO/BRL). PCR amplification was then carried out for 35 cycles at 94° C. for 1 min., 58° C. for 1 min., 72° C. for 1 min., followed by a final extension at 72° C. for 10 min., except where indicated otherwise. A sample of amplified DNA (10 μl) was resolved on a 1.5% agarose gel containing 0.5 μg/ml ethidium bromide and visualized and photographed under UV light. […] PCR amplification with primers specific for human β-actin were run for every cell sample, as positive controls to ensure that the isolated RNA was not degraded, and for normalization to verify that relatively equal amounts of RNA were used for the first strand cDNA synthesis reactions.
(§3) Primers specific for PDE4A, PDE4B, PDE4C, and PDE4D3 were synthesized. […] M37744; HSPDE4A4B (PDE-46), GenBank no. L20965; HSPDE4A4C (h6.1), GenBank no. U18087. […] U88712 and U88713.

[2] = test system: PDE4D3 mRNA in RPMI 8392 cells; experiment: RT-PCR amplification of PDE4 subtype transcripts in RPMI 8392 cells; conditions: agent alone
RPMI 8392 cells = experiment: Apoptosis by endonuclease-digested DNA (DNA laddering) on agarose gels; conditions: Homo sapiens, read-out: Concentrations at which apoptosis was induced
Description: The preferred method for testing the ability of AS ODN to induce apoptosis as determined by detection of endonuclease digested DNA on agarose gels employs the following sequence:
(2) Cells are grown to ≈10^6 /ml, collected by centrifugation for 5 min. at 300×g (1000 rpm in an IEC Model K centrifuge), resuspended in growth medium to 10^6 cells/ml, and placed in a 24 well tissue culture plate at 1 ml/well. The cell volumes are kept to a minimum (i.e., -1 ml), in order to reduce the amount of ODN needed. The fetal bovine serum used in the growth medium for this step is heat-inactivated at 65° C. for 1 hr. to minimize serum nuclease activity.
(4) Cells are then incubated for varying times, usually 1-3 days, following which the DNA is isolated.
The supernatant is aspirated down to ≈50 μl of volume and the cell pellet is resuspended in this remaining small volume.
(6) About 400 μl of cold cell lysis buffer (50 mM Tris-HCl, pH 7.5, 10 mM EDTA, 1% Triton X-100) is then added.
(9) The upper, aqueous phase is transferred to a fresh microfuge tube and 250 μl of phenol and 250 μl of chloroform are added, the mixture gently vortexed for 5 sec., and centrifuged at 16,650×g for 5 min.
(10) The upper, aqueous phase is again transferred to a fresh microfuge tube and 500 μl of chloroform is added, followed by gentle vortexing and centrifugation at 16,650×g for 3 min.
(11) The upper, aqueous phase is again transferred to a fresh microfuge tube, 3M sodium acetate (pH 5.2) is added to a final concentration of 0.3M, and 2.5 volumes of ice cold 100% ethanol is added. The solution is left overnight at -20° C. to precipitate the DNA.
(12) The DNA is collected by centrifugation at 16,650×g for 15 min., the supernatant decanted, and the pellet air dried for ≈30-60 min. at room temperature. The DNA pellet is then dissolved in 50 μl of pH 8.0 TE buffer at room temperature overnight.
(13) One μl of a 4 mg/ml solution of DNase-free RNase A is then added to the DNA and incubation is carried out at 37° C. for 30 min. This step is necessary to prevent contaminating RNA from obscuring the gel.
(14) Thirty μl of DNA solution is then mixed with 6 μl of 6× loading buffer and run on a 2% agarose gel, containing 0.5 μg/ml ethidium bromide, in 0.5× TBE buffer (45 mM Tris-borate, 1 mM EDTA, pH 8.0) at ≈50 V for ≈1.5 hr. The 6× loading buffer used is 0.25% xylene cyanol and 30% glycerol. The use of bromophenol blue is omitted for this analysis because it tends to obscure the visualization of the DNA ladder pattern.
(15) The gel is then visualized and photographed under UV light.
The effect of pharmacological inhibition of each of these PDE activities on induction of apoptosis in RPMI 8392 cells was tested, using the appearance of oligonucleosome length fragments of endonuclease digested DNA as a measure of apoptosis.
Markers (lane 1 in both gels) are 1 kb DNA ladder size markers from GIBCO/BRL.
Cells (10^6) were collected by centrifugation at 670×g for 5 min. The cell pellets were rinsed once with 0.2M dibasic sodium phosphate and lysed in 300 μl of lysis buffer (50 mM Tris/HCl pH 7.5, 10 mM EDTA, 1% V/V Triton X-100) for 20 min on ice. Proteinase K was added to 0.5 mg/ml and DNase-free RNase was added to 50 μg/ml and the extract incubated at 37° C. for 1 hr. DNA was then extracted in phenol/chloroform (1:1) and chloroform (1:1) and precipitated in 2.5 volumes of ethanol. The extracted DNA was electrophoresed on 2% agarose gels, the gels stained with 0.5 μg/ml ethidium bromide and photographed under UV light.
Experiments were conducted to determine if inhibition of the expression of the gene for PDE1B1 could induce apoptosis.

isolated, quiescent HPBL = experiment: TUNEL assay of apoptosis, flow cytometry, quiescent HPBL; conditions: mitogen PHA added to HPBL in culture
Excerpt: Nevertheless, the effects of AS ODNs on HPBL can still be tested by quantifying and comparing the percentage of cells undergoing apoptosis in the presence and absence of the AS ODN. Apoptosis detected by examining endonuclease-digested DNA, commonly referred to as the DNA laddering technique, has been employed and the results therefrom are set forth in FIG. 5. However, we prefer to use a TUNEL assay, an acronym for terminal deoxynucleotidyl transferase (TdT)-mediated dUTP nick end labeling, which more readily allows quantitation of the percentage of cells undergoing apoptosis. The principle of the TUNEL assay is that endonuclease digestion during apoptosis results in the formation of 3'-OH ends in the digested DNA. The digested DNA in the apoptotic cells can then be labeled with fluorescein by catalytically incorporating fluorescein-12-dUTP at the 3'-OH ends using the TdT enzyme. Fluorescence can then be quantitated by flow cytometry, using a fluorescence activated cell sorter (FACS), which would give a measure of the number of cells undergoing apoptosis. An example of the appearance of a population of fluorescein labeled apoptotic cells, as evidenced by flow cytometry, following TUNEL assay labeling of the cells, is shown in FIGS. 6A-C. Cells were then cultured for 3 days with 10 μg/ml PHA-P (Sigma), in the absence of any ODN (FIG. 6A), in the presence of 30 μM NS ODN (FIG. 6B), or in the presence of 30 μM AS ODN (FIG. 6C). Cells were then collected by centrifugation and fluorescein labeled by the TUNEL assay using the Promega Apoptosis Detection System. Flow cytometry was performed on a Beckton Dickinson FACScan by the FACS facility.
The procedure for analyzing apoptosis by the TUNEL method uses either an In Situ Cell Death Kit, Fluorescein from Boehringer Mannheim or an Apoptosis Detection System, Fluorescein from Promega and follows the protocols of the manufacturers. The data in FIGS. 6 and 7 was obtained using the manufacturer's protocol for the Apoptosis Detection System, Fluorescein from Promega. […]

PDE4D3 mRNA in HPBL = experiment: RT-PCR amplification of transcripts in HPBL; conditions: 10 μg/ml PHA-P, more prominent at 48 hr than 18 hr
Description: as §1, §2, §3

PDE4A mRNA in HPBL = experiment: RT-PCR amplification of transcripts in HPBL; conditions: 10 μg/ml PHA-P, 18 and 48 hr
Description: as §1, §2, §3

PDE1B1 mRNA in HPBL = experiment: RT-PCR amplification of transcripts in HPBL
Description: as §1, §2, §3

[3] = test system: PDE4D1 and D2 mRNA in HPBL; experiment: RT-PCR amplification of transcripts in HPBL; conditions: 10 μg/ml PHA-P, 18 and 48 hr
Description: as §1, §2, §3

Compound: CC(C)Cn1c(=O)n(C)c(=O)c2[nH]cnc21 [IBMX, 1-methyl-3-isobutylxanthine]
- Expression of PDE4B mRNA, compared with dbcAMP plus IBMX [1]: reproduced
- PDE4 mRNA expression, compared with dbcAMP plus IBMX (PDE4 mRNA in HPBL; IBMX (0.1 mM) alone): same effects
- Expression of PDE4D3 mRNA, compared with dbcAMP plus IBMX [2]: reproduced

Compound: CCCCOc1cc(CC2CNC(=O)N2)ccc1OC (centres unmarked) [RO 20-1724]
- minimal effective concentration (RPMI 8392 cells; 24 h): ≥ 10 µM

Compound: CCCC(=O)Nc1ncnc2c1ncn2[C@@H]1O[C@@H]2COP(=O)(O)O[C@H]2[C@H]1OC(=O)CCC [dbcAMP, dibutyryl cAMP]
- Expression of PDE4B mRNA, compared with dbcAMP plus IBMX [1]: reproduced
- PDE4 mRNA expression, compared with dbcAMP plus IBMX (PDE4 mRNA in HPBL; dbcAMP (1 mM) alone): same effects
- Expression of PDE4D3 mRNA, compared with dbcAMP plus IBMX [2]: reproduced

Compound: COc1ccc(C2CNC(=O)C2)cc1OC1CCCC1 (centres unmarked) [rolipram]
- minimal effective concentration (RPMI 8392 cells; RPMI 8392 cells, culture for 24 hr): ≥ 10 µM

Compound: phytohemagglutinin [PHA]
- Spontaneous apoptosis of HPBL in culture (TUNEL) (isolated, quiescent HPBL): prevented the HPBL from undergoing spontaneous apoptosis
- Expression of PDE4D3 mRNA (PDE4D3 mRNA in HPBL): huge induction
- Expression of PDE4A mRNA (PDE4A mRNA in HPBL): striking induction
- Expression of the mRNA for PDE1B1 (PDE1B1 mRNA in HPBL; 10 μg/ml PHA-P, 18 and 48 hr): readily apparent
- PDE1B1 RT-PCR cDNA fragment (≈333 nt) (PDE1B1 mRNA in HPBL; PHA for 3 days): show a cDNA fragment of the predicted size
- Expression of PDE4D1 and D2 mRNA [3]: some increase in the expression
